Legend:
Assay in all cases: selective drug sensitivity score (sDSS, relative to normal bone marrow) (sDSS (score)); higher = more potent and effective on the cell line relative to normal bone marrow cells
Details in all cases: 72 h
TANOUE = tested on: TANOUE
COG-LL-394h = tested on: COG-LL-394h
697 = tested on: 697
COG-LL-355h = tested on: COG-LL-355h
SEM cells = tested on: SEM cells
PEER = tested on: PEER
NALM-16 = tested on: NALM-16
CCRF-HSB2 = tested on: CCRF-HSB2
COG-LL-317 = tested on: COG-LL-317
MHH-CALL-3 = tested on: MHH-CALL-3
KASUMI-2 = tested on: KASUMI-2
KASUMI-9 = tested on: KASUMI-9
PF-382 = tested on: PF-382
MOLT-16 = tested on: MOLT-16
JURKAT = tested on: JURKAT
MHH-CALL-2 = tested on: MHH-CALL-2
COG-LL-319h = tested on: COG-LL-319h
RCH-ACV = tested on: RCH-ACV
COG-LL-402h = tested on: COG-LL-402h
ALL-SIL = tested on: ALL-SIL
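Further: ALL cell lines in 384-well plates, five doses spanning 10,000-fold, each plate scaled between vehicle and 100 µmol/L benzalkonium chloride controls, sDSS an adapted area-under-curve metric.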

SMILES	selective drug sensitivity score (TANOUE)	selective drug sensitivity score (COG-LL-394h)	selective drug sensitivity score 697	selective drug sensitivity score (COG-LL-355h)	selective drug sensitivity score (SEM cells)	selective drug sensitivity score (PEER)	selective drug sensitivity score (NALM-16)	selective drug sensitivity score (CCRF-HSB2)	selective drug sensitivity score (COG-LL-317)	selective drug sensitivity score (MHH-CALL-3)	selective drug sensitivity score (KASUMI-2)	selective drug sensitivity score (KASUMI-9)	selective drug sensitivity score (PF-382)	selective drug sensitivity score (MOLT-16)	selective drug sensitivity score (JURKAT)	selective drug sensitivity score (MHH-CALL-2)	selective drug sensitivity score (COG-LL-319h)	selective drug sensitivity score (RCH-ACV)	selective drug sensitivity score (COG-LL-402h)	selective drug sensitivity score (ALL-SIL)
O=C(/C=C/c1cccnc1)NCCCCC1CCN(C(=O)c2ccccc2)CC1 [Daporinad] (top concentration 1000 nM)	7.66	-4.44	16.3	11	17.2	8.76	2.96	6.76	17.7	14.6	8.66	16.2	18.4	11.2	8.76	11.4	9.76	19.5	16.4	9.46
Nc1nc(NC2CC2)cc(-c2cccc(Cl)c2Cl)n1 [TH588] (top concentration 25000 nM)	-0.58	-0.58	8.72	2.42	8.62	12	5.32	8.42	7.72	-0.58	-0.58	7.92	6.72	16.3	15.2	-0.58	3.82	3.52	3.72	14.7
Cc1ccc(Nc2nccc(N(C)c3ccc4c(C)n(C)nc4c3)n2)cc1S(N)(=O)=O [Pazopanib] (top concentration 10000 nM)	-1.26	-0.76	4.94	-1.26	4.54	2.84	-1.26	4.34	-1.26	-1.26	3.44	3.64	1.74	1.94	2.84	6.24	0.74	10.5	-1.26	2.64
CN(C)Cc1ccc(S(=O)(=O)n2ccc(/C=C/C(=O)NO)c2)cc1 [Resminostat] (top concentration 10000 nM)	-4.16	2.04	7.74	6.04	8.64	8.24	0.24	2.24	5.14	11.7	11.7	10.2	2.64	4.54	1.34	8.14	12.2	12.2	10.2	6.64
Cc1c(-c2ccc(N3CCc4cccc(C(=O)Nc5nc6ccccc6s5)c4C3)nc2C(=O)O)cnn1CC12CC3CC(CC(C3)C1)C2 (top concentration 1000 nM)	-2.26	7.94	-1.76	18.2	-1.66	19.3	-2.26	10.2	25.9	9.54	1.04	-2.26	12.5	0.54	7.34	-1.26	19.4	-1.76	16.5	25.1
C=CC(=O)Nc1cc2c(Nc3ccc(F)c(Cl)c3)ncnc2cc1OCCCN1CCOCC1 [Canertinib] (top concentration 10000 nM)	-7.24	1.56	1.66	5.96	2.56	2.26	-0.14	6.36	2.96	12.6	1.86	3.76	-0.54	1.86	-1.14	3.16	3.36	1.26	4.86	5.16
Cc1cc(Nc2cc(CN3CCOCC3)c3nc(C)c(Cc4ccc(Cl)cc4F)n3n2)n[nH]1 [Gandotinib] (top concentration 10000 nM)	-7.72	0.88	5.28	2.18	10.5	8.68	-1.52	5.98	8.68	1.18	7.18	9.88	1.88	5.68	3.98	7.48	8.68	8.88	5.28	9.08
COC(=O)C[C@](O)(CCCC(C)(C)O)C(=O)O[C@@H]1C(OC)=C[C@]23CCCN2CCc2cc4c(cc2[C@H]13)OCO4 [Omacetaxine] (top concentration 10000 nM)	-14.8	13	10.5	4.62	4.22	-1.88	-8.18	4.92	7.12	15.6	10.8	1.12	0.62	6.32	-0.48	3.82	4.12	7.22	7.92	-1.88
Cc1ccc(NC(=O)c2ccc(CN3CCN(C)CC3)cc2)cc1Nc1nccc(-c2cccnc2)n1 [Imatinib] (top concentration 10000 nM)	-0.44	3.06	1.06	-0.44	0.06	12	-0.44	7.96	1.36	-0.44	-0.44	-0.44	-0.24	0.46	0.66	0.16	0.06	2.16	-0.44	24.9
CC(C)C[C@@H](C(=O)N[C@H](C(=O)OC1CCCC1)c1ccccc1)[C@H](O)C(=O)NO [Tosedostat] (top concentration 10000 nM)	-5.24	1.26	-1.54	11.4	0.86	0.06	3.06	3.16	14.9	15.3	-5.44	2.56	5.66	10.4	2.16	5.76	3.96	2.16	-0.74	1.06
CNC(=O)c1cc(Oc2ccc(NC(=O)Nc3ccc(Cl)c(C(F)(F)F)c3)c(F)c2)ccn1 [Regorafenib] (top concentration 10000 nM)	4.44	5.94	7.94	6.74	10	7.64	1.54	6.14	2.54	-1.56	10	2.04	4.34	3.34	4.04	1.64	1.84	10.9	1.24	10
CC(C)NC[C@@H](C(=O)N1CCN(c2ncnc3c2[C@H](C)C[C@H]3O)CC1)c1ccc(Cl)cc1 [Ipatasertib] (top concentration 10000 nM)	-1.8	-0.3	2.9	5.8	3.3	-1.6	1.7	0.3	11	0.2	7.9	-0.2	4.2	10.9	7.1	4.7	2.4	12	7.3	2.9
S=C(NCc1ccc2c(c1)OCO2)N1CCN(c2ncnc3c2oc2ccccc23)CC1 [Amuvatinib] (top concentration 10000 nM)	6.16	7.36	7.86	2.06	2.26	9.36	0.86	3.96	0.96	5.06	10.8	1.26	5.06	8.36	11.1	3.66	5.96	9.26	2.36	6.66
CC(C)(C)c1cc(NC(=O)Nc2ccc(-c3cn4c(n3)sc3cc(OCCN5CCOCC5)ccc34)cc2)no1 [Quizartinib] (top concentration 1000 nM)	-1.52	-0.32	0.98	-1.02	20.7	-0.02	-1.32	-0.12	-0.02	-1.52	-1.52	-0.02	0.98	1.88	-1.52	2.38	5.48	2.08	-1.52	3.48
Cc1cn(-c2cc(NC(=O)c3ccc(C)c(Nc4nccc(-c5cccnc5)n4)c3)cc(C(F)(F)F)c2)cn1 [Nilotinib] (top concentration 10000 nM)	0	0.7	1.3	0.6	4.9	18.1	0	12.9	0	0.5	4.1	4.6	2.7	2.1	1.1	8.9	8.2	8.3	0	43.3
Nc1nc2[nH]cc(CCc3ccc(C(=O)N[C@@H](CCC(=O)O)C(=O)O)cc3)c2c(=O)[nH]1 [Pemetrexed] (top concentration 10000 nM)	-0.72	1.58	28.3	4.28	25.6	15.5	7.38	28.2	25.1	13.5	19.3	18.6	12.1	28.4	15.6	18.7	27.3	28.8	7.98	15.5
CN(C)c1cc2c(cc1Sc1nc3c(N)nccc3n1CCNCC(C)(C)C)OCO2 [CUDC-305] (top concentration 10000 nM)	-6.68	-1.28	2.92	2.42	5.12	0.42	1.12	8.12	7.62	-11.7	-0.28	0.22	3.82	4.42	1.22	1.02	-2.48	4.02	3.92	3.02
C[C@]12C=CC(=O)C=C1CC[C@@H]1[C@@H]2[C@@H](O)C[C@@]2(C)[C@H]1CC[C@]2(O)C(=O)CO [Prednisolone] (top concentration 10000 nM)	-2.8	-3	17.8	20.6	2.9	-3	-3	9.3	2.6	26.7	13.5	2	-1.6	3.5	-2.1	23.1	16.2	26.8	16.9	8.9

Source: the supplement of paper PMC8967900
